# Experimental data reported in patent US20160243080A1, “FORMULATIONS OF ANGIOTENSIN RECEPTOR BLOCKERS” (priority 2015, published 2016).
# Entries after “also recorded” stand apart in the source; their conditions may differ. Like-named read-outs stand apart in the source and are kept apart here.
# Columns and labels:
# wound = experiment: Diabetic mouse and pig wound models, timing of topical application (summary statements); type: in vivo; settings: first 1-7 days after wounding
# [1] = test system: healing skin of aged diabetic pigs; experiment: Masson's trichrome and H&E staining of skin sections from aged diabetic pigs; type: in vivo, pig
# Excerpt: Using Mason Trichrome (FIG. 22, panels A-H) and H&E stains (FIG. 22, panel I). Collagen content and other histological changes in healing skin were examined. Tensiometry was employed to quantify differences in tensile strength between placebo and valsartan treated wounds.
# [2] = test system: wounds of diabetic (Leprdb) mice; experiment: Mouse model wound healing experiments, planimetric wound closure; type: in vivo; settings: topical, applied from 7 days after wounding (proliferation/remodeling phase)
# Excerpt: In FIG. 11, the “ratio” (y-axis) reflects the percentage of wound closure as compared to the wound size on day 7 in the same animal.
# [3] = test system: 5 cm full-thickness circular excisional wounds; experiment: Wound healing in aged diabetic Yucatan miniature swine: digital photography, planimetry, image analysis; type: in vivo, Sus scrofa
# Experimental: Both gels are applied daily. • Wound measurements: On a daily basis, planimetry and digital photography are conducted to assess changes in wound size. • Upon complete closure: Healed wound tissue is collected and analyzed. The study had two treatment groups, which consisted of a test article treatment or a vehicle control treatment on three diabetic (alloxan-induced) Yucatan miniature swine. The acclimation period was 7 days. On Day 0, each study animal underwent surgery to create 8 (4 per side) 5 cm full-thickness circular excisional wounds on their dorsal surface. All wounds were initially topically treated with the same (Treatment A) compound once daily for the first 7 days (Day 0 through Day 6). Thereafter, 4 wounds per animal received daily topical administration of Treatment B, and the other 4 wounds received Treatment C for the duration of the study. All wound sites (8 per animal) were covered with one dressing type. All wounds were observed/evaluated up through final sample collection (Day 57). The experimental study design, including treatment groups and wound sites/time points, and variables to be evaluated and intervals are presented in Tables 1 through 3. On Day 0, the dorso-lateral back area of each animal was closely clipped with electric clippers. Each animal was prepared for surgery using alternating disinfecting scrubs and isopropyl alcohol rinses. The surgical area was draped and a sufficiently large hole(s) was created within the drape(s). The proposed wound sites were outlined using a sterile template and sterile marker. […] Refer to FIG. 3. • a. Using a surgical blade, eight 5 cm full-thickness circular excisional wounds were created (down to the fat layer). All excised tissue from each wound site was discarded. • b. Direct pressure was utilized to obtain hemostasis. • c. […] Each animal was monitored until it had completely recovered from the anesthesia. […] Each animal was monitored until it had completely recovered from anesthesia (if employed). […]
# Smad1 = experiment: Immunohistochemistry of Smads in wounds of aged diabetic pigs; type: in vivo; settings: pig wounds, vs placebo
# Excerpt: (§1) Although not completely characterized, wound healing is greatly influenced by subtle changes of transforming growth factor-beta (TGF-β) superfamily, which is strongly influenced by RAS. TGF-β signaling mediate the phosphorylation of Smad family proteins. Phosphorylated Smads then translocate to the nucleus with the common-mediator (co-Smad) Smad4. Additionally, Smad activity is also regulated by phosphorylation through non-receptor kinases such as p42/44 mitogen activating protein kinase (MAPK) and p38 MAPK. In chronic wounds, failure of TGF-β Smad 2 and 3 phosphorylation and reduction in p42/44 MAPK activity was associated with a slower proliferative rate and impaired healing. RAS has been tightly linked to TGFβ activity but the specific effects of AT1R on the different Smads during wound healing are not known.
# [4] = test system: phosphorylated Smad1, 5 and 9; experiment: as above; type: in vivo; settings: pig wounds, vs placebo
# Excerpt: as §1
# Smad2 = experiment: as above; type: in vivo; settings: pig wounds, vs placebo
# Excerpt: as §1
# Smad3 = experiment: as above; type: in vivo; settings: pig wounds, vs placebo
# Excerpt: as §1
# TGFβ3 mRNA = experiment: mRNA expression in treated mouse wounds; type: in vivo; settings: P<0.05
# [5] = test system: healing skin of aged diabetic pigs; experiment: Tensiometry of healed pig skin; type: in vivo; settings: vs placebo
# Experimental: At termination, an approximately 8 mm×16 mm tensiometry sample was collected from the dorsal side of each wound site that spanned the cranial to caudal aspect of the wound for analysis. This procedure was performed and data maintained by sponsor personnel. No details of analysis or results were included in this in-life report. […] Using Mason Trichrome (FIG. 22, panels A-H) and H&E stains (FIG. 22, panel I). Collagen content and other histological changes in healing skin were examined. Tensiometry was employed to quantify differences in tensile strength between placebo and valsartan treated wounds.
# VEGF Receptor 2 = experiment: Proliferation and angiogenesis markers in aged diabetic pig wounds; type: in vivo
# Excerpt: (§2) An increase in a-SMA and phosphorylated VEGF Receptor 2 was also observed. Finally, the inventors have previously reported the presence of a functional mitochondrial angiotensin system within the mitochondria that played a role in mitochondrial bioenergetics regulation.
# p42/44 MAPK = experiment: as above; type: in vivo
# Excerpt: as §2
# [6] = test system: alpha-smooth muscle actin (α-SMA); experiment: as above; type: in vivo
# Excerpt: as §2
# [7] = type: in vivo; settings: body weight, blood pressure, blood glucose, serum chemistry and hematology
# Excerpt: Prior to this study, selected male animals had been castrated and fitted with vascular access ports (VAP) for diabetic induction. After these animals had fully recovered from VAP procedures, diabetes was chemically-induced using alloxan. Following induction, the glucose levels of the animals was monitored and regulated with Vetsulin (or equivalent). A glucometer and/or other appropriate device was used to determine glucose levels of the animals. VAP procedures, diabetic induction, and recovery periods were conducted under a separate SRC standard protocol prior to the initiation of this study. Glucose levels of all study animals were monitored and regulated at least once daily during the study to keep within targeted glucose range (target 200 to 600 mg/dL). Blood pressure was determined for each animal on Days 7, 8, 18, and 57 (prior to termination).
# General in-cage/pen observations for mortality/moribundity were made at least daily.
# Animals were weighed once during acclimation (Day −1) and again prior to termination (Day 57).
# Day −5 (acclimation), Day 10 (pre-dose), Day 18 (pre-dose) and Day 57 (prior to termination); blood samples for CBC and serum chemistries were collected for clinical pathology analysis from each animal and analyzed by SRC. • Hematology: Blood samples (3 mL/animal) were collected from all animals. K3EDTA was used as anticoagulant. […]
# AT2R mRNA = experiment: mRNA expression in treated mouse wounds; type: in vivo
# [8] = cited from earlier work
# in vivo = settings: Yucatan miniature swine, pig
# Experimental: Plasma standards and samples (50 μL) were extracted in 500 μL methanol containing 100 nM losartan (internal standard). Extracts were centrifuged at 16000×g for 5 minutes at 4° C. to precipitate proteins. Extracts (500 μL) were transferred to a new tube and dried in vacuum at 45° C. for 90 minutes. Samples were reconstituted in 30% acetonitrile in water (50 μL) and centrifuged as above. Supernatants (45 μL) were transferred to a 96 well plate. Analytes (10 μL) were separated on an Agilent 1290 UPLC system with a c18 column using a gradient run of 50-95% acetonitrile over 2 minutes at 0.4 mL/minute and detected on an Agilent 6520 QTOF mass spectrometer. Standards within the quantifiable range were used to generate a standard curve.
# Prior to surgery (Day 0), Day 10 (pre-dose), Day 18 (pre-dose), and Day 57 (prior to termination); blood samples (3 mL/animal) were collected, processed to plasma by centrifuging for approximately 15 minutes at 3000 rpm at 4° C., transferred into labeled cryovials, immediately frozen on dry ice, and shipped to the sponsor for future analysis.
# wounds of AT2R^−/− mice = experiment: Wound healing in AT2R^−/− mice; type: in vivo, mouse
# Excerpt: Pharmacologically, ARBs and ACE inhibitors differ on their mechanism of action and the level at which they block RAS. While ARBs block RAS distally at the AT1R level, ACEi block the conversion of Angiotensin I to Angiotensin II and thereby diminishing available Angiotensin II to bind to either AT1R or AT2Rs. […] Collagen is a marker for assessing skin strength.
# mitochondrial Cox IV = experiment: Mitochondrial content in aged diabetic pig wounds; type: in vivo
# Excerpt: as §2
smiles,measurement,setting,value
CCCCC(=O)N(Cc1ccc(-c2ccccc2-c2nnn[nH]2)cc1)[C@H](C(=O)O)C(C)C [valsartan],wound healing when applied during the inflammatory phase,wound,made the wounds bigger
same,wound healing when applied during the inflammatory phase,wound; listed as topical valsartan,significantly impaired wound healing
same,zone of dermal collagen,[1],expanded zone of dermal collagen
same,dermal collagen layer thickness,[1]; P<0.001 vs placebo,6±0.2 mm
same,epidermal layer thickness,[1]; P<0.001 vs placebo,192±11 μm
same,collagen fiber arrangement (ultrastructural analysis),[1]; vs placebo,more organized collagen fiber arrangement
same,wound healing / wound closure,[2],more efficacious in accelerating wound healing compared to losartan
same,epithelization (automated digital analysis of wound images),"[3]; aged diabetic pigs, vs placebo",higher rates of epithelization
same,slough at the wound base (automated digital analysis of wound images),"[3]; aged diabetic pigs, vs placebo",lower accumulation of slough at the wound base; also recorded: clearance of slough
same,healing rate / wound closure rate (planimetry) as compared to placebo,"[3]; diabetic pigs, daily topical from Day 7, 57 days",faster wound closure rates
same,Smad1 expression,Smad1,decrease in the expression
same,Smad1 expression,Smad1; listed as topical Valsartan,inhibited
same,"Smad1, 5, 9 phosphorylation",[4],decreased; also recorded: decrease in the expression
same,Smad2 expression,Smad2,decrease in the expression
same,Smad2 expression,Smad2; listed as topical Valsartan,inhibited
same,Smad3 expression,Smad3,higher expression
same,phosphorylated Smad3,Smad3,higher expression
same,Smad3 expression,Smad3; listed as topical Valsartan,activated
same,phosphorylated Smad3,Smad3; listed as topical Valsartan,increase in phosphorylated Smad3
same,decrease in TGFβ3 mRNA,TGFβ3 mRNA,0.6 fold
same,tensile strength of healing skin,[5],higher tensile strength
same,phosphorylated VEGF Receptor 2,VEGF Receptor 2,increase
same,phosphorylation of p42/44 MAPK,p42/44 MAPK,enhanced phosphorylation of p42/44 MAPK
same,α-SMA,[6],increase
same,tolerability / adverse animal health effects,[7],no observed adverse animal health effects
same,AT2R mRNA,AT2R mRNA,statistically non-significant increase
same,expected blood level of Valsartan in a human on oral Valsartan,[8],4 to 5 µM
same,concentration at 57 day,in vivo,< 1 nM
same,wound healing / wound closure in AT2R^−/− mice,wounds of AT2R^−/− mice,delayed healing
same,mitochondrial Cox IV / mitochondrial numbers,mitochondrial Cox IV,significant increase in the mitochondrial numbers
same,mitochondrial Cox IV / mitochondrial numbers,mitochondrial Cox IV; listed as topical Valsartan,increase in mitochondrial COX IV
